Experimental data published in patent publication US10239843B2 (CANCER RESEARCH TECHNOLOGY LIMITED, priority 2014, dated 2019).
Read-outs that look alike come from different tables or passages of the source.

Columns and labels:
Human Full Length PARG = Human Full Length PARG (Homo sapiens (Human), UniProt Q86W56); experiment: PARG enzyme assay (TR-FRET); assay type: biochemical; details: read-out: PARG Biochem IC50
PARG in HeLa cell line = experiment: PARG cell assay (PAR chain immunofluorescence after MMS); assay type: cell-based; details: HeLa cells, MMS treatment, read-out: PARG Cell IC50
Method in brief: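 HeLa cells were dosed with compound for 1 h, then given MMS at 50 μg/mL final for a further hour. Cells were methanol-fixed, permeabilised and stained overnight at 4° C with anti-PAR monoclonal antibody. Retained nuclear PAR chains, detected by indirect immunofluorescence, indicate PARG inhibition.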

Human Full Length PARG, sequence (Q86W56 whole entry): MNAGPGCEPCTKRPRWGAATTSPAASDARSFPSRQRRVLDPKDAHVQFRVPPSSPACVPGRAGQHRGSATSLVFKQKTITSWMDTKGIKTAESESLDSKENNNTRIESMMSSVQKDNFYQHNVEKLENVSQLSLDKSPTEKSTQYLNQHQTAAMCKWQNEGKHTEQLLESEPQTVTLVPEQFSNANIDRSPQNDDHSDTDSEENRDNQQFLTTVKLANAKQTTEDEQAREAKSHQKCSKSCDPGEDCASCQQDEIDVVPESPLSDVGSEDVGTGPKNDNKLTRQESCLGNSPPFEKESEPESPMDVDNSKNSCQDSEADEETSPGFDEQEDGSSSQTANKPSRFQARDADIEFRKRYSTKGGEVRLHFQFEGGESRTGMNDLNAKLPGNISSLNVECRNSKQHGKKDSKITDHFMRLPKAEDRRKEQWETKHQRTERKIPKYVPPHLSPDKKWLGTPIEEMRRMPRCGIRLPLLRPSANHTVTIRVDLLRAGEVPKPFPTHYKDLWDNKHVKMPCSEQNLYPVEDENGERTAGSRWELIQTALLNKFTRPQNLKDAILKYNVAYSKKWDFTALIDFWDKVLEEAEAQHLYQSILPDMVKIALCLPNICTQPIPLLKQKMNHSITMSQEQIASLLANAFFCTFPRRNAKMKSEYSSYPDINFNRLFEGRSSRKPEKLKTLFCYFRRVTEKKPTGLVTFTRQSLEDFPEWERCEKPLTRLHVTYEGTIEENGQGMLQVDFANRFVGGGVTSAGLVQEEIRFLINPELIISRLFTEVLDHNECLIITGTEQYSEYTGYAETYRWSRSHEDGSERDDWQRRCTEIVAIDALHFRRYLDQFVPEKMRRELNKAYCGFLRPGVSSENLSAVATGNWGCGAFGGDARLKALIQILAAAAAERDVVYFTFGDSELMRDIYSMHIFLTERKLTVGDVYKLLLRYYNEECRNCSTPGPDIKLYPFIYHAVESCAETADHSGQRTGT

| SMILES | IC50 (Human Full Length PARG) | IC50 (PARG in HeLa cell line; Homo sapiens) | IC50 (PARG in HeLa cell line) |
| --- | --- | --- | --- |
| Cn1cc(Cn2c(=O)c3cc(S(=O)(=O)NC4(CF)CC4)ccc3n(Cc3cncs3)c2=O)cn1 [Example 563, N-[1-(Fluoromethyl)cyclopropyl]-3-[(1-methylpyrazol-4-yl)methyl]-2,4-dioxo-1-(thiazol-5-ylmethyl)quinazoline-6-sulfonamide] | 8 nM | 66 nM | – |
| Cn1cc(Cn2c(=O)c3cc(S(=O)(=O)NC4(CF)CC4)ccc3n(Cc3cnco3)c2=O)cn1 [Example 564, N-[1-(Fluoromethyl)cyclopropyl]-3-[(1-methylpyrazol-4-yl)methyl]-1-(oxazol-5-ylmethyl)-2,4-dioxo-quinazoline-6-sulfonamide] | 38 nM | 127 nM | – |
| Cn1cc(Cn2c(=O)c3cc(S(=O)(=O)NC4(CF)CC4)ccc3n(Cc3nccn3C)c2=O)cn1 [Example 565, N-[1-(Fluoromethyl)cyclopropyl]-1-[(1-methylimidazol-2-yl)methyl]-3-[(1-methylpyrazol-4-yl)methyl]-2,4-dioxo-quinazoline-6-sulfonamide] | 156 nM | 558 nM | – |
| Cn1cc(Cn2c(=O)c3cc(S(=O)(=O)NC4(CF)CC4)ccc3n(CCc3ccccn3)c2=O)cn1 [Example 566, N-[1-(Fluoromethyl)cyclopropyl]-3-[(1-methylpyrazol-4-yl)methyl]-2,4-dioxo-1-[2-(2-pyridyl)ethyl]quinazoline-6-sulfonamide] | 687 nM | – | 562 nM |
| Cc1nnc(Cn2c(=O)n(Cc3cnn(C)c3)c(=O)c3cc(S(=O)(=O)NC4(CF)CC4)ccc32)o1 [Example 567, N-[1-(Fluoromethyl)cyclopropyl]-1-[(5-methyl-1,3,4-oxadiazol-2-yl)methyl]-3-[(1-methylpyrazol-4-yl)methyl]-2,4-dioxo-quinazoline-6-sulfonamide] | 225 nM | 855 nM | – |
| Cc1nc(Cn2c(=O)n(Cc3cnn(C)c3)c(=O)c3cc(S(=O)(=O)NC4(CF)CC4)ccc32)c[nH]1 [Example 568, N-[1-(Fluoromethyl)cyclopropyl]-1-[(2-methyl-1H-imidazol-4-yl)methyl]-3-[(1-methylpyrazol-4-yl)methyl]-2,4-dioxo-quinazoline-6-sulfonamide] | 100 nM | 5290 nM | – |
| Cc1cnc(Cn2c(=O)n(Cc3cnn(C)c3)c(=O)c3cc(S(=O)(=O)NC4(CF)CC4)ccc32)cn1 [Example 569, N-[1-(Fluoromethyl)cyclopropyl]-1-[(5-methylpyrazin-2-yl)methyl]-3-[(1-methylpyrazol-4-yl)methyl]-2,4-dioxo-quinazoline-6-sulfonamide] | 130 nM | 128 nM | – |
| Cn1cc(Cn2c(=O)c3cc(S(=O)(=O)NC4(CF)CC4)ccc3n(CC3(CO)CC3)c2=O)cn1 [Example 570, N-[1-(Fluoromethyl)cyclopropyl]-1-[[1-(hydroxymethyl)cyclopropyl]methyl]-3-[(1-methylpyrazol-4-yl)methyl]-2,4-dioxo-quinazoline-6-sulfonamide] | 126 nM | 238 nM | – |
| Cc1ccnc(Cn2c(=O)n(Cc3cnn(C)c3)c(=O)c3cc(S(=O)(=O)NC4(CF)CC4)ccc32)c1 [Example 571, N-[1-(Fluoromethyl)cyclopropyl]-3-[(1-methylpyrazol-4-yl)methyl]-1-[(4-methyl-2-pyridyl)methyl]-2,4-dioxo-quinazoline-6-sulfonamide] | 330 nM | 373 nM | – |
| Cc1ccc(Cn2c(=O)n(Cc3cnn(C)c3)c(=O)c3cc(S(=O)(=O)NC4(CF)CC4)ccc32)cn1 [Example 573, N-[1-(Fluoromethyl)cyclopropyl]-3-[(1-methylpyrazol-4-yl)methyl]-1-[(6-methyl-3-pyridyl)methyl]-2,4-dioxo-quinazoline-6-sulfonamide] | 71 nM | 167 nM | – |
| Cn1cc(Cn2c(=O)c3cc(S(=O)(=O)NC4(CF)CC4)ccc3n(CCC#N)c2=O)cn1 [Example 574, 1-(2-Cyanoethyl)-N-[1-(fluoromethyl)cyclopropyl]-3-[(1-methylpyrazol-4-yl)methyl]-2,4-dioxo-quinazoline-6-sulfonamide] | 170 nM | 530 nM | – |
